The results in this text go back to patent publication US20070015818A1, “Cyclic sulfone containing retroviral protease inhibitors” (G.D. Searle & Co. (now G.D. Searle, LLC), priority 1995, published 2007).

pEC50: −log10 of the molar value.

This assay has as its system HIV. Description: EC50 of Table 1 (antiviral activity, method not described). The assay is classed as cell-based. The settings on record: Human immunodeficiency virus 1.
In turn, `CC(C)CCN(C[C@@H](O)[C@H](Cc1ccccc1)NC(=O)C1CCCS(=O)(=O)C1)C(=O)NC(C)(C)Cn1ccnc1` (stereo partly drawn) [Example 4a] had a negative-log EC50 (pEC50) of 6.53. Molecule `CC(C)(C)NC(=O)[C@@H]1C[C@@H]2CCCC[C@@H]2CN1C[C@@H](O)[C@H](Cc1ccccc1)NC(=O)C1CCCS(=O)(=O)C1` (stereo partly drawn) [Example 7] gave a pEC50 of 7.92. In the case of `CC(C)CCN(C[C@@H](O)[C@H](Cc1ccccc1)NC(=O)C1CCCS(=O)(=O)C1)S(=O)(=O)c1ccccc1` (stereo partly drawn) [Example 8] it was 7.72.

For orientation: pEC50 means −log10 of the EC50, conventionally taken in molar units. Lower therefore signals a large EC50.
